Measured values taken from patent publication US20250381110A1, “SKIN CARE COMPOSITION AND METHOD OF USING THE SAME” (THE PROCTER & GAMBLE COMPANY, priority 2024, published 2025).
Where a name gives a salt, the structure may show the parent alone.

Test system: p62-dependent mitophagy
Assay: Luciferase-p62 assay (Fluc-p62 clearance) in mouse embryonic fibroblasts
Format: cell-based
Conditions: for Mean Luminescence: Luciferase-p62 assay, mouse embryonic fibroblasts (MEFs), compounds at 10 μM; for % Activity over baseline: percentage of Luciferase-p62 clearance relative to baseline (mean luminescence in the absence of doxycycline induction); for % Activity over baseline / % Activity relative to Rapamycin: MEFs, 10 μM; for % Activity relative to Rapamycin: percentage of activity relative to rapamycin tested in the same experiment at the same concentration
Protocol: To identify p62-dependent materials which increase mitophagy, a Luciferase-p62 Assay was established. This method provides an approach to measure the ability of a material to modulate p62-dependent mitophagy by using an inducible firefly luciferase-p62 (Fluc-p62) reporter cell system. In this assay, p62 levels are driven by doxycycline treatment. After levels increased, expression of Fluc-p62 is turned off by removal of doxycycline, materials are then added and assessed for how they affect clearance of Fluc-p62 protein, which is proportionate to cellular mitophagy rates (Kelly et al.). The negative control is doxycycline induced Luc-p62 in the absence of compound or bioactive material treatment and in the presence of vehicle (DMSO).
Test materials including bioactive materials were screened in mouse embryonic fibroblasts (MEFs, Harada et al.) expressing the TET-inducible p62-fluc construct as previously described (Brown et al.). […] Gibson assembly was used to insert firefly luciferase (Fluc) and p62 into the pCW57.1 backbone. Fluc, p62, and pCW57.1 were polymerase chain reaction (PCR) amplified using pfu polymerase (Life technologies) and Gibson assembly primers with 20 base pair (bp) overhangs. PCR products were separated by agarose gel electrophoreses, and fragments excised and purified before use in DNA assembly reaction with NEBuilder HiFi DNA Assembly kit (New England Biolabs). After the assembly, the reaction mix was transformed into NEB3040 Stable Competent Escherichia coli (New England Biolabs). After 24 hours growth at 31 degrees Celsius the plasmid was extracted using QIAprep Spin Miniprep kit (Qiagen). The plasmid was sequenced to confirm correct insertion of Fluc-p62. To generate MEFs stably expressing doxycycline inducible Fluc-p62, HEK293FT cells were transfected with Fluc-p62-pCW57.1 and the ViraPower Packaging Mix (Invitrogen) to produce lentivirus. MEFs were transduced with the obtained lentiviral stock following followed by selection with 1 microgram per milliliter puromycin.Fluc-p62expressing MEFs were maintained in DMEM supplemented with 10 percent fetal bovine serum (FBS), 100 units per milliliter penicillin/streptomycin, and 2 millimolar L-glutamine in a humidified atmosphere containing 5 percent carbon dioxide at 37 degrees Celsius. Cells were plated into white 96 well plates (2,000 cells per well with 100 microliters media) and allowed to settle for 24 hours. […] Subsequently, cells were treated with test materials for 48 hours in normal growth medium and analysed using ONE-Glo™+Tox Luciferase Reporter and Cell Viability Assay (Promega) by following the manufacturer's protocol.
Test compositions and control compositions were prepared as described above in the Luciferase-p62 assay (Method 3) and tested accordingly. The compounds used in this example, as examples of bioactive materials, were from the APExBIO DiscoveryProbe™ Natural Product Library Plus (Houston, TX) and evaluated at equivalent concentrations (10 μM).
Data are additionally calculated as percentage of activity relative to rapamycin, a benchmark control compound tested in the same experiment.

| SMILES | Mean Luminescence | % Activity over baseline [%] | % Activity relative to Rapamycin [%] |
| --- | --- | --- | --- |
| CCN(CC)c1ccc(/C=N/NC(=O)c2ccc(O)cc2)cc1 [DY131] | 878.41 | 45.71 | 82.36 |
| C[C@H](CCC(=O)O)[C@H]1CC[C@H]2[C@@H]3CC[C@@H]4C[C@H](O)CC[C@]4(C)[C@H]3C[C@H](O)[C@]12C [Deoxycholic acid sodium salt] | 591.12 | 63.47 | 114.35 |
| C/C(=C\CNc1ncnc2nc[nH]c12)CO [trans-Zeatin] | 994.70 | 38.53 | 69.42 |
| N[C@H](Cc1ccccc1)C(=O)O [D-Phenylalanine] | 763.78 | 52.80 | 95.13 |
| N[C@@H](Cc1c[nH]c2ccc(O)cc12)C(=O)O [Compound 5-HTP] | 902.36 | 44.23 | 79.70 |
| O=C(/C=C/c1ccc(O)cc1)CC(=O)/C=C/c1ccc(O)cc1 [Bisdemethoxycurcumin] | 355.33 | 78.04 | 140.61 |
| CC(=O)CCc1ccc(O)cc1 [Raspberry ketone] | 696.39 | 56.96 | 102.63 |
| CC(C)=CCC[C@@H](C)[C@H]1CC[C@@]2(C)C3=C(CC[C@]12C)[C@@]1(C)CC[C@H](O)C(C)(C)[C@@H]1CC3 [Lanosterol] | 957.65 | 40.82 | 73.54 |
| CC(=O)C(C)=NO [2,3-Butanedione-2-monoxime] | 762.32 | 52.89 | 95.29 |
| NC[C@H]1O[C@H](O[C@H]2[C@H](O)[C@@H](O[C@H]3O[C@H](CO)[C@@H](O)[C@H](N)[C@H]3O)[C@H](N)C[C@@H]2N)[C@H](N)C[C@@H]1O [Tobramycin] | 971.48 | 39.96 | 72.00 |
| CNC(=O)c1cc(Oc2ccc(NC(=O)Nc3ccc(Cl)c(C(F)(F)F)c3)cc2)ccn1 [Sorafenib] | 932.25 | 42.39 | 76.37 |
| CC(=O)[C@H]1CC[C@H]2[C@@H]3CC=C4C[C@@H](O)CC[C@]4(C)[C@H]3CC[C@]12C [Pregnenolone] | 870.09 | 46.23 | 83.29 |
| CCCNC(C)C(=O)Nc1ccccc1C (stereo not drawn) [Prilocaine] | 905.23 | 44.06 | 79.38 |
| COc1ccc(CC(=O)O)cc1 [4-Methoxyphenylacetic acid] | 929.33 | 42.57 | 76.69 |
| CC(=O)OCC(=O)[C@@]1(O)[C@H](C)C[C@H]2[C@@H]3CCC4=CC(=O)C=C[C@]4(C)[C@@]3(F)[C@@H](O)C[C@@]21C [Dexamethasone acetate] | 681.22 | 57.90 | 104.32 |
| CCc1ccc(CCOc2ccc(CC3SC(=O)NC3=O)cc2)nc1 (stereo not drawn) [Pioglitazone] | 847.16 | 47.65 | 85.84 |
| CCC(C)n1ncn(-c2ccc(N3CCN(c4ccc(OCC5COC(Cn6cncn6)(c6ccc(Cl)cc6Cl)O5)cc4)CC3)cc2)c1=O (stereo not drawn) [Itraconazole] | 450.47 | 72.16 | 130.02 |

| SMILES | Mean Luminescence | % Activity over baseline [%] | % Activity relative to Rapamycin [%] |
| --- | --- | --- | --- |
| CC(Cc1ccc(O)c(O)c1)C(C)Cc1ccc(O)c(O)c1 (stereo not drawn) [Nordihydroguaiaretic acid] | 964.84 | 40.37 | 72.74 |
| CO/N=C1\C[C@]2(C[C@@H]3C[C@@H](C/C=C(\C)C[C@@H](C)/C=C/C=C4\CO[C@@H]5[C@H](O)C(C)=C[C@@H](C(=O)O3)[C@]45O)O2)O[C@H](/C(C)=C/C(C)C)[C@H]1C [Moxidectin] | 476.19 | 70.57 | 127.15 |
| COc1cccc2c1C(=O)c1c(O)c3c(c(O)c1C2=O)C[C@@](O)(C(=O)CO)C[C@@H]3O[C@H]1C[C@H](N)[C@H](O[C@@H]2CCCCO2)[C@H](C)O1 [Pirarubicin] | 978.32 | 39.54 | 71.24 |
| O=C1C=CC(=O)C=C1 [1,4-Benzoquinone] | 422.02 | 73.92 | 133.18 |
| CCOC(=O)c1c(C)n(C)c2ccc(O)cc12 [Mecarbinate] | 799.96 | 50.56 | 91.10 |
| O=C(O)c1cccc(O)c1 [m-Hydroxybenzoic acid] | 745.89 | 53.90 | 97.12 |
| CCCCCCCCC[C@H](O)CC(=O)CCc1ccc(O)c(OC)c1 [Compound 10-Gingerol] | 520.57 | 67.83 | 122.21 |
| OC[C@H]1O[C@H](OCC2O[C@@H](O)[C@H](O)[C@@H](O)[C@@H]2O)[C@H](O)[C@@H](O)[C@H]1O (stereo partly drawn) [Melibiose] | 715.78 | 55.76 | 100.47 |
| COC(=O)c1c2c(c3ccccc3c1O)OC(C)(C)C=C2 [Mollugin] | 709.65 | 56.14 | 101.16 |
| Clc1ccc(C(Cn2ccnc2)OCc2ccsc2Cl)c(Cl)c1 (stereo not drawn) [Tioconazole] | 537.96 | 66.75 | 120.27 |
| CNC[C@H](O)[C@@H](O)[C@H](O)[C@H](O)CO.CNC[C@H](O)[C@@H](O)[C@H](O)[C@H](O)CO.C[C@@H](O[C@H]1OCCN(Cc2nn(P(=O)(O)O)c(=O)[nH]2)[C@H]1c1ccc(F)cc1)c1cc(C(F)(F)F)cc(C(F)(F)F)c1 [Fosaprepitant dimeglumine salt] | 756.54 | 53.24 | 95.93 |
| COc1ccc2cc3[n+](cc2c1O)CCc1cc2c(cc1-3)OCO2 [Berberrubine] | 766.18 | 52.65 | 94.86 |
| Clc1ccc(COC(Cn2ccnc2)c2ccc(Cl)cc2Cl)c(Cl)c1 (stereo not drawn) [Miconazole] | 297.40 | 81.62 | 147.06 |
| CCCCc1oc2ccc(NS(C)(=O)=O)cc2c1C(=O)c1ccc(OCCCN(CCCC)CCCC)cc1 [Dronedarone] | 550.43 | 65.98 | 118.89 |
| C[C@@H]1CCCCCCCCCCCCC(=O)C1 [Muscone] | 869.43 | 46.27 | 83.36 |
| Nc1ccn([C@@H]2O[C@H](CO)[C@@H](O)[C@H]2O)c(=O)n1 [Cytidine] | 841.40 | 48.00 | 86.49 |
